In patent US20090110701A1, “T-CELL MODULATION” (THE UNIVERSITY COURT OF THE UNIVERSITY OF ABERDEEN, priority 2004, published 2009):

Tests used:
Format in all cases: cell-based, human
[1] = system: Lymphocytes from patients with autoimmune haemolytic anaemia; experiment: Peptide mapping assay for sCTLA-4 production (RhD peptides); conditions: 1 million lymphocytes per peptide, five days at 37° C., seven AIHA patients, FIG. 9
Protocol: Peptide mapping experiments to identify peptides which stimulate sCTLA-4 production were performed as follows. Each peptide (1 to 42) was derived from the RhD autoantigen. Lymphocytes (1 million per peptide) from patients with autoimmune haemolytic anaemia were added to individual peptides and incubated for five days at 37° C. At the end of this period the cell cultures were assessed for an increase in sCTLA-4 production. In these assays a stimulation index of 2 is considered a positive result (twice as much sCTLA-4 detected compared with non-stimulated control).
Certain peptides in some cases stimulated sCTLA-4 production by three, four or even ten times higher than non-stimulated cells alone.

[2] = system: PBMC; experiment: sCTLA-4 secretion ELISA, PBMC from healthy adult donors
[3] = system: PBMC; experiment: Cytokine secretion ELISA (IFN-γ, IL-10, IL-4) of PBMC cultures; conditions: FIG. 5a
Protocol: (§1) Cytokine Secretion ELISA. ELISA were based on previously published methods and were performed from 3-7 days of in vitro cell culture. The following antibody pairs were used: purified mouse anti-IFN-γ (clone NIB42) and biotinylated mouse anti-IFN-γ (clone 4S.B3); purified mouse anti-IL-10 (clone JES3-19F1) and biotinylated mouse anti-IL-10 (clone JES3-12G8); purified mouse anti-IL-4 (clone 8D4-8) and biotinylated mouse anti-IL-4 (clone MP4-25D2) (all from BD Biosciences, Oxford, UK). All recombinant human cytokines (IFN-γ, IL-4, and IL-10) were purchased from Peprotech EC Ltd. (London, UK).

[4] = system: PBMC; experiment: Proliferation assay (3H thymidine incorporation) of PBMC; conditions: FIG. 5a
Protocol: Proliferation Assay. Cell proliferation was assessed by the incorporation of ^3H thymidine, as previously described.

[5] = system: PBMC from patients with AIHA; experiment: sCTLA-4 and IL-4 secretion by PBMC from AIHA patients incubated with RhD; conditions: one patient from an initial sample of six, FIG. 3
Protocol: FIG. 3. Differential stimulation of sCTLA-4 secretion by PBMC sampled from AIHA patients in response to incubation with RhD protein antigen.
as §1
We also developed a similar secretion ELISA for sCTLA-4 with antibodies identified previously. Briefly, sCTLA-4 was measured in vitro by incubating a capture anti-CTLA-4 antibody (clone: BNI3 2μg ml^−1) in 96 well Nunc Maxisorp plates for 2 hours at 37° C. Plates were washed and blocked with 3% BSA before the addition of test cell culture suspension. […] Developed plates were measured with a Multiskan MS microplate photometer (Life and Laboratory Sciences, Basingstoke, UK) at an absorbance of 405 nm. […]

## SSKYPRSVRRCLPLW [Peptide 1, peptide derived from the RhD autoantigen, residues 2-16]
[1]
  stimulation of sCTLA-4 production (stimulation index versus non-stimulated control; 2 is positive): particularly effective

## anti-CD3 antibody: Stimulatory anti-CD3 antibody (clone OKT3) purified from hybridoma cell culture supernatants
[2]; 12 healthy individuals, FIG. 5b, P<0.01 Wilcoxon for PPD, anti-CD3 data not shown
  sCTLA-4 levels compared with non-stimulated PBMC, all individuals analyzed: invariably reduced
[2]; individual donor profile, FIG. 5a, 5 days, 37° C., stimulus 5 μg ml−1
  sCTLA-4 levels in vitro compared with non-stimulated PBMC: dramatically reduced
[3]
  IFN-γ secretion, PPD versus anti-CD3 cultures: similar
  IL-10 secretion, anti-CD3 compared with PPD: increase
[4]
  Proliferation, PPD versus anti-CD3 cultures: similar

B1: RhD autoantigen: AIHA-associated autoantigen RhD protein (protein, UniProt Q02161 2-417, looked up)
Blood group Rh(D) polypeptide: SSKYPRSVRRCLPLWALTLEAALILLFYFFTHYDASLEDQKGLVASYQVGQDLTVMAAIGLGFLTSSFRRHSWSSVAFNLFMLALGVQWAILLDGFLSQFPSGKVVITLFSIRLATMSALSVLISVDAVLGKVNLAQLVVMVLVEVTALGNLRMVISNIFNTDYHMNMMHIYVFAAYFGLSVAWCLPKPLPEGTEDKDQTATIPSLSAMLGALFLWMFWPSFNSALLRSPIERKNAVFNTYYAVAVSVVTAISGSSLAHPQGKISKTYVHSAVLAGGVAVGTSCHLIPSPWLAMVLGLVAGLISVGGAKYLPGCCNRVLGIPHSSIMGYNFSLLGLLGEIIYIVLLVLDTVGAGNGMIGFQVLLSIGELSLAIVIALMSGLLTGLLLNLKIWKAPHEAKYFDDQVFWKFPHLAVGF
[5]
  IL-4 secretion compared with negative controls: higher levels
  sCTLA-4 secretion compared with negative controls: higher levels
